Experimental data reported in patent US20090215732A1, “COMBINATION OF COMPOUNDS, WHICH CAN BE USED IN THE TREATMENT OF RESPIRATORY DISEASES, ESPECIALLY CHRONIC OBSTRUCTIVE PULMONARY DISEASE (COPD) AND ASTHMA” (priority 2005, published 2009).

Experiment: Estimated solubility of the salt in organic solvents
Type: physicochemical
Experimental: (b) The Form B salt described in (a) above was also prepared by dissolving, in a vial, 20% w of a sample of the benzoate salt prepared by the method of Example 1(b) (Form A) in a solvent such as methanol (>20 mg/ml), ethanol (>20 mg/ml), n-propanol (>20 mg/ml), isopropanol (8.5 mg/ml) or acetone (9.6 mg/ml). The figures in brackets indicate the estimated solubility of the salt in these solvents. The vial was then sealed and the suspension was homogenised at ambient temperature (20° C.) using a magnet. Stirring and temperature were maintained for a period of at least 7 days after which time a sample of the material obtained was dried and tested by XRPD. XRPD confirmed that there had been complete transformation of Form A to Form B.
(a) Form B was prepared by dissolving, in a vial, 20% w of a sample of the furoate salt prepared by the method of Example 1(b) (Form A) in a solvent such as ethanol (16 mg/ml) or 2-butanol (8 mg/ml). The figures in brackets indicate the estimated solubility of the salt in these solvents. The vial was then sealed and the suspension was homogenised at ambient temperature (20° C.) using a magnet. Stirring and temperature were maintained for a period of at least 7 days after which time a sample of the material obtained was dried and tested by XRPD. XRPD confirmed that there had been complete transformation of Form A to Form B.

SMILES | estimated solubility of the salt (solvent acetone) | estimated solubility of the salt (solvent ethanol) | estimated solubility of the salt (solvent isopropanol) | estimated solubility of the salt (solvent methanol) | estimated solubility of the salt (solvent n-propanol) | estimated solubility of the salt (solvent 2-butanol)
CC(=O)Nc1ccc(O)cc1OC[C@@](C)(O)CNC1CCN(Cc2ccc(Cl)cc2)CC1.O=C(O)c1ccccc1 [Example 1(b), N-{2-[((2S)-3-{[1-(4-chlorobenzyl)piperidin-4-yl]amino}-2-hydroxy-2-methylpropyl)oxy]-4-hydroxyphenyl}acetamide benzoate (1:1 salt), Form A] | 9.6 mg/mL | > 20 mg/mL | 8.5 mg/mL | > 20 mg/mL | > 20 mg/mL | 
CC(=O)Nc1ccc(O)cc1OC[C@@](C)(O)CNC1CCN(Cc2ccc(Cl)cc2)CC1.O=C(O)c1ccco1 [Example 1(c), N-{2-[((2S)-3-{[1-(4-chlorobenzyl)piperidin-4-yl]amino}-2-hydroxy-2-methylpropyl)oxy]-4-hydroxyphenyl}acetamide furoate (1:1 salt), Form A] |  | 16 mg/mL |  |  |  | 8 mg/mL
